Source: PMC7179312 (Antimicrobial Agents and Chemotherapy, 2020)

Experiments:
[1] = test system: P. aeruginosa PAM1154 carrying pUCP24 vector (PAM4175); assay: MIC, CLSI broth microdilution; type: cell-based; conditions: Pseudomonas aeruginosa, drug alone
From the text: The effects of KPC mutations on resistance to various antibiotics were investigated. For these studies, pUCP24 plasmids carrying wild-type and mutant blaKPC-2 genes as well as the pUCP24 vector were transformed into PAM1154, an efflux-deficient strain of Pseudomonas aeruginosa. In this host, the effect of β-lactamases on β-lactam MIC is amplified due to the slowed uptake of β-lactams across the low-permeability outer membrane without interference by efflux of either β-lactams or BLIs. Consequently, this host allows detection of β-lactamase activity (as an MIC increase) of low-catalytic-efficiency enzymes that rely heavily on the low permeability of the outer membrane. Using the strain that lacks efflux pumps ensures no interference from efflux in interpreting results. We next evaluated the steady-state protein expression levels in bacterial cells. […] The observed discrepancy with our results could be attributed to the difference in either the expression vector or host bacteria.
For microbiological studies, wild-type blaKPC-2 and its mutant variants were cloned into the shuttle vector pUCP24. Resulting plasmids were transformed in the efflux-deficient strain of P. aeruginosa PAM1154 using selection on 15 μg/ml of gentamicin. Using a strain of P. aeruginosa as opposed to E. coli as a host for various cloned genes was based on the following consideration. As well documented elsewhere ([41]), P. aeruginosa has a low-permeability outer membrane; consequently, the effect of β-lactamases on MIC is amplified in P. aeruginosa compared to that in E. coli due to the slowed uptake of β-lactams. Thus, this host is appropriate to detect β-lactamase activity (as an MIC increase) of low-catalytic-efficiency enzymes that rely heavily on low permeability of the outer membrane. […] MICs were determined using the Clinical and Laboratory Standards Institute (CLSI) broth microdilution method as described in CLSI document M07-A11 ([42]). Potentiation of antibiotic activity by various BLIs in bacterial strains carrying wild-type (WT) and mutant KPC-2 genes was performed using standard checkerboard methodology ([43]). BLI potency was defined as PV50 (PV, potentiation value). PV50 is the minimal concentration of a BLI that is required to reduce the antibiotic MIC to the middle of the MIC range (E50) where the highest MIC is the MIC for a KPC-producing strain with no inhibitor added and the lowest MIC is the MIC for the vector-only strain, corresponding to the complete inhibition of KPC. E50 is calculated as the square root of the product of the antibiotic MICs for the KPC-producing and the vector-only strains.

[2] = target: T1, KPC-2 L169P (Klebsiella pneumoniae, UniProt Q9F663, L168P); assay: Steady-state Ki with nitrocefin as substrate (method of Waley); type: biochemical; conditions: NCF substrate, 10 min preincubation, 37°C
T1 construct: 6xHis (C); made in house; host or cells: E. coli (pET28a construct; BL21(DE3) pLys is named only for wild type and D179Y)

[3] = target: T2, KPC-2 (Klebsiella pneumoniae, UniProt Q9F663); assay: IC50 of inhibition of ceftazidime hydrolysis; type: biochemical
T2 construct: 6xHis (C); made in house; host or cells: E. coli BL21(DE3) pLys, pET28a
Method: (§1) Enzymes were mixed with BLIs at concentrations varying from 160 to 0.0027 μM in buffer A and incubated for 10 min, and 100 μM (for wild-type KPC-2) or 10 μM (for the D179Y mutant) CFTZ was subsequently added. Substrate cleavage profiles were recorded at 260 nm every 10 s for 10 min. Initial rates of reaction were calculated and exported to Prism software to calculate IC50s using the “dose-response – inhibition, variable slope (four parameters)” equation.

[4] = target: T3, KPC-2 D179Y (Klebsiella pneumoniae, UniProt Q9F663, D178Y); assay: IC50 of inhibition of ceftazidime hydrolysis; type: biochemical
T3 construct: 6xHis (C); made in house; host or cells: E. coli BL21(DE3) pLys, pET28a
Method: as §1

[5] = target: T2, KPC-2; conditions: NCF hydrolysis; cited from earlier work
[6] = test system: P. aeruginosa PAM1154 carrying pUCP24 vector (PAM4175); assay: Checkerboard potentiation of antibiotic activity by BLIs; type: cell-based, Pseudomonas aeruginosa

| Compound | MIC [1] | Ki [2] | IC50 [3] | IC50 [4] | Kd [5] | k2/K [5] | k−2 [5] | Antibiotic MIC with avibactam at 4 μg/ml ([6]; avibactam 4 μg/ml) | Antibiotic MIC, No BLI ([6]; no BLI) | Antibiotic MIC with vaborbactam at 8 μg/ml ([6]; vaborbactam 8 μg/ml) |
| --- | --- | --- | --- | --- | --- | --- | --- | --- | --- | --- |
| O=C(O)C[C@@H]1CC[C@H](NC(=O)Cc2cccs2)B(O)O1 [Vaborbactam, vaborbactam] | > 256 µg/mL | 190 ± 20 nM | 940 ± 20 nM | 1900 ± 300 nM | 8 nM | 5.5 ± 0.5 × 10^3 M^−1 s^−1 | 4.3 ± 0.6 × 10^−5 s^−1 |  |  |  |
| CO/N=C(\C(=O)N[C@@H]1C(=O)N2C(C(=O)[O-])=C(C[N+]3(C)CCCC3)CS[C@H]12)c1csc(N)n1 [Cefepime, cefepime] | 0.125 µg/mL |  |  |  |  |  |  | 0.125 µg/mL | 0.125 µg/mL | 0.125 µg/mL |
